Measured values: publication PMC12024814, “Ruthenium(II)–Arene Complexes with a 2,2′-Bipyridine Ligand as Anti-Aβ Agents” (Biomolecules, 2025)

Columns and labels:
[1] = biological target: T1, Aβ40 (Homo sapiens, UniProt P05067); assay: Thioflavin T (ThT) fluorescence assay of Aβ40 aggregation; format: biochemical; conditions: for Ranking ThT: scale 1 to 5 (1 = best, 5 = worst); for relative aggregation of Aβ40 (ThT fluorescence normalized to Aβ40 alone): equimolar 10 µM complex and Aβ40, 10 µM ThT, final 6 h time point, 37 °C
T1 construct: Lyophilized Aβ40 was monomerized following previous procedures; purchased GenScript
Description: All PBS used in the assay was filtered through a 0.20 μm Titan 3 syringe filter prior to use. The Ru stock solutions initially dissolved about 1.5 mg of each Ru complex in 100 µL DMSO and diluted it to 10 mL with PBS. Thioflavin T (ThT) was prepared in the same manner as the Ru complexes but was filtered prior to use in the assay. Lyophilized Aβ40 was monomerized following previous procedures and stored at −20 °C until use. When removed from the freezer, peptide samples were held on ice for 20 min prior to preparation for the assay. The Aβ40 was mixed with a 15 μL aliquot of DMSO and gently flicked to initiate dissolution. Next, 135 μL PBS was added, and the sample was sonicated until the solution was clear. The concentration of the Aβ40 stock solution was determined using an Implen NanoPhotometer N50 at λ = 280 nm with an extinction coefficient of 1490 M^−1 cm^−1 [27]. Samples were prepared in a 96-well plate by the sequential addition of PBS, Ru, ThT, and Aβ, where the final volume was 150 μL, and the analyte concentrations were 10 μM each. Thioflavin T (ThT) fluorescence was measured using the SpectraMax M3 plate reader with λex = 440 nm and λem = 480 nm. Measurements were taken every 30 min for a total of 6 h, with shaking occurring between each reading.
Each of the prepared Ru complexes was mixed with an equimolar amount of Aβ40 (10 µM), along with ThT (10 µM). Each sample was prepared in triplicate, loaded onto a microwell plate, and incubated at 37 °C with constant agitation to promote aggregation, with fluorescence measurements taken every 30 min for up to 6 h. The resultant fluorescence signals were normalized to the last time point for the samples of Aβ40 alone. After 4 h of incubation, a sharp increase in fluorescence for the peptide alone was observed, signifying that aggregation was occurring (Figure 5). […] Remarkably, the activity shown by RuBA is among the greatest we have measured thus far across a variety of Ru complexes. To confirm this activity, the samples from the ThT assay were subjected to additional analysis, as described below.
Figure 5 ThT fluorescence results following the incubation of equimolar solutions (10 μM) of Aβ40 with the Ru complexes for up to 6 h at 37 °C. The signals were normalized to the positive control of the free peptide in solution at the 6 h time point. The error bars represent the standard deviation observed for each data point for the respective samples.

[2] = Aqueous stability by 1H NMR (DMSO-D6/D2O, 37 °C); format: physicochemical; conditions: for ligand exchange in aqueous media (1H NMR): DMSO-D6/D2O, up to 24 h (RuBtB in 75% DMSO); for incubation time at which new 1H NMR signals (ligand exchange) reached maximum intensity: 25% DMSO-D6 in D2O
Description: A common step in the mechanism of action for most metal-based drugs is ligand exchange around the metal center. This promotes the coordination of the complex to the penultimate biological target, eliciting the desired response. […] Therefore, to evaluate the relative stability of the prepared complexes, ^1H NMR studies were performed. Following complete dissolution of the complexes in deuterated DMSO, dilution using D2O to a final DMSO concentration of 25% provided aqueous samples that were measured following prolonged incubation at 37 °C.
For the majority of the complexes, new signals emerged in close proximity to those of the parent complex, even without any incubation. […] A previously study monitoring ligand exchange for RuB in the presence of several proteins saw that neither the arene ring nor the 2,2-bipyridine ligands were lost, but rather the labile monodentate chloride ligand was replaced.

[3] = test system: pheochromocytoma cells (PC-12); assay: MTT cell viability assay, PC-12 cells; format: cell-based, Rattus norvegicus; conditions: 24 h
Description: Cultures of adherent Rattus norvegicus pheochromocytoma cells (PC-12; ATCC CRL-1721) and axenic Rattus norvegicus C6 glioma cells (ATTC CCL-107) were prepared as previously reported. The cells were cultured using Dulbecco’s Modified Eagle’s medium with low glucose, sodium pyruvate, and without phenol red or L-glutamine (DMEM REF:11054-020; GIBCO; Waltham, MA, USA) and supplemented with 1.5% (v/v) heat-inactivated fetal bovine serum (GIBCO; Waltham, MA, USA), 10% (v/v) sterile filtered horse serum (Sigma-Aldrich, St. Louis, MO, USA), and 4% sterile L-glutamine (Sigma-Aldrich; St. Louis, MO, USA). […]
For the viability assays, both cell types were grown to confluency before being trypsinized, resuspended in 1 mL of complete medium per confluent well of a 6-well plate, diluted ten-fold, and then counted with a Scepter 2.0 Handheld Automated Cell Counter (Millipore, Burlington, MA, USA) affixed with a 60 µm sensor. […]
To assess the viability of the cells with and without Ru additions, cell viability tests were performed using an MTT assay following the procedure of Mosmann with the following variations: Before adding the MTT reagent (5 mg/mL water), 90 µL of the complete medium was removed from each well, and 90 µL of incomplete medium was added. […] The absorbance values were recorded using a Bio-Rad® Microplate Reader Benchmark at 595 nm. […]

T1 sequence (P05067 672-711 limits assumed): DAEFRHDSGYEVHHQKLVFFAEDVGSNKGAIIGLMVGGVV

Compound: [Ru(η^6-p-cymene)(4,4′-diamino-2,2′-bipyridine)Cl]PF6 [RuBA]
- Ranking ThT [1]: 1
- ligand exchange in aqueous media (1H NMR) [2]: particularly rapid

Compound: [Ru(η^6-p-cymene)(4,4′-di-tert-butyl-2,2′-bipyridine)Cl]PF6 [RuBtB]
- relative aggregation of Aβ40 (ThT fluorescence normalized to Aβ40 alone) [1]: 14.3% ± 0.6%
- Ranking ThT [1]: 3
- toxicity (MTT) ([3]; 20 and 40 µM): substantial toxicity
- IC50 (cell viability) ([3]; tested 0.2–40 µM): below the concentrations evaluated
- ligand exchange in aqueous media (1H NMR) [2]: no new signals emerged even after 24 h of incubation

Compound: Cc1ccc(C(C)C)cc1.F[P-](F)(F)(F)(F)F.[Cl-].[Ru+2].c1ccc(-c2ccccn2)nc1 [RuB, [Ru(η^6-p-cymene)(2,2′-bipyridine)Cl]PF6]
- relative aggregation of Aβ40 (ThT fluorescence normalized to Aβ40 alone) [1]: 9.0% ± 2.3%
- Ranking ThT [1]: 2
- incubation time at which new 1H NMR signals (ligand exchange) reached maximum intensity [2]: 1 h

Compound: Cc1ccc(C(C)C)cc1.Cc1ccnc(-c2cc(C)ccn2)c1.F[P-](F)(F)(F)(F)F.[Cl-].[Ru+2] [RuBMe, [Ru(η^6-p-cymene)(4,4′-dimethyl-2,2′-bipyridine)Cl]PF6]
- Ranking ThT [1]: 5
- incubation time at which new 1H NMR signals (ligand exchange) reached maximum intensity [2]: 1 h

Compound: [Ru(η^6-p-cymene)(4,4′-dimethoxy-2,2′-bipyridine)Cl]PF6 [RuBMeO]
- relative aggregation of Aβ40 (ThT fluorescence normalized to Aβ40 alone) [1]: 16.1% ± 6.9%
- Ranking ThT [1]: 4
- incubation time at which new 1H NMR signals (ligand exchange) reached maximum intensity [2]: 1 h
